Data as given in patent EP0728482A2, “Use of hcp specific compounds to enhance erythropoiesis” (SMITHKLINE BEECHAM CORPORATION, priority 1995, dated 1996).

Target: T1, human p85 SH2 domain (Homo sapiens, UniProt P27986)
T1 construct: made in house; host or cells: E. coli (pGEX-3X)
Assay: ELISA-based SH2 domain / pY peptide binding assay, p85 SH2 domain
Protocol: The inhibitory activity of compounds at the different human SH2 domains was determined in vitro using SH2 domains expressed as fusion proteins in E. coli. The SH2 domains used herein were the human forms of the src SH2 domain, Grb2 SH2 domain, lck SH2 domain, fyn SH2 domain, SH-PTP2 SH2 domain, p85 SH2 domain and hcp SH2 domain.
Fusion proteins having the structure GST-X-SH2 were prepared as described in the GST gene fusion kit system available from Pharmacia (New Jersey). GST is the tagging sequence glutathione s-transferase epitope (SEQ ID NO: 8) for fyn, Grb2 and SH-PTP2 and is the tagging sequence glutathione s-transferase epitope (SEQ ID NO: 9) for p85. SH2 refers to the SH2 domains of fyn, Grb2, p85 and SH-PTP2 which were expressed and purified using glutathione Sepharose 4B (Pharmacia) according to "Current Protocols in Molecular Biology", ed. FM Ausubel et al., pub. John Wiley and Sons, Inc., (1995), p 16.7.1. X is an appropriate linker, preferably of 6 to 21 base pairs, used to keep the SH2 construct in frame and complement cloning. As such, the sequence of X is not critical. One skilled in the art can readily construct the appropriate linker. The DNA sequence encoding each GST-X-SH2 fusion protein was designed such that the indicated restriction sites (BamH1 and EcoRI) flank the SH2 region. […]

T1 sequence (P27986 321-440): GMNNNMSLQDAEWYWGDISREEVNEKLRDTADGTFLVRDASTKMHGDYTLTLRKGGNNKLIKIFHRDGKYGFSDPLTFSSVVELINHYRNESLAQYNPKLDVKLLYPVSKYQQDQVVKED

**Q.** Which Ki (Ki calculated from IC50 with the expanded equation) does the source give for CCCCCCNC(=O)[C@H]1CC[C@H](CNC(=O)c2ccc(C(=O)c3ccc(C(=O)O)cc3)cc2)CC1 [Compound 6, 4-carboxy-benzophenone-4-carboxamido-trans-4-methyl-cyclohexyl-N-hexyl carboxamide] here?
**A.** > 1000 µM

**Q.** And the IC50 (inhibition of binding of 0.1 uM biotinylated pY peptide to SH2 domain fusion protein)?
**A.** > 300 µM
